Tests used:
[1] = Plasma clearance in male Sprague-Dawley rat at 10 mg/kg, po; format: ADME, organism-based
[2] = Plasma clearance in male Sprague-Dawley rat at 5 mg/kg, iv; format: ADME, organism-based
[3] = AUC (0 to infinity) in male Sprague-Dawley rat at 10 mg/kg, po; format: ADME, organism-based; set-up: dose 10 mg/kg, route oral, time infinity; conditions: in vivo
[4] = test system: Mus musculus; experiment: Anti-diabetic effect in ICR mouse assessed as plasma glucose lowering effect at 10 mg/kg, po treated 1 hr before 2.5 g/kg, po glucose load by Oral glucose tolerance test relative to control
[5] = Elimination half life in male Sprague-Dawley rat at 5 mg/kg, iv; format: ADME, organism-based; conditions: in vivo, read-out: beta t1/2 (converted)
[6] = Tmax in male Sprague-Dawley rat at 10 mg/kg, po; format: ADME, organism-based; conditions: in vivo
[7] = target: Dipeptidyl peptidase 8 (Homo sapiens, UniProt Q6V1X1); experiment: Inhibition of human recombinant DPP8 using H-Gly-Pro-AMC substrate after 10 mins by fluorescence assay
[8] = AUC (0 to infinity) in male Sprague-Dawley rat at 5 mg/kg, iv; format: ADME, organism-based; set-up: dose 5 mg/kg, time infinity, route intravenous; conditions: in vivo
[9] = Volume of distribution at steady state in male Sprague-Dawley rat at 5 mg/kg, iv; format: ADME, organism-based; conditions: in vivo, read-out: Vdss
[10] = test system: Rattus norvegicus; experiment: Volume of distribution at steady state in male Sprague-Dawley rat at 10 mg/kg, po; format: ADME, organism-based; conditions: in vivo
[11] = Elimination half life in male Sprague-Dawley rat at 10 mg/kg, po; format: ADME, organism-based; conditions: in vivo, read-out: beta t1/2 (converted)
[12] = Cmax in male Sprague-Dawley rat at 10 mg/kg, po; format: ADME, organism-based; set-up: dose 10 mg/kg, route oral; conditions: in vivo
[13] = test system: Mus musculus; experiment: Anti-diabetic effect in ICR mouse assessed as plasma glucose lowering effect at 10 mg/kg, po treated 8 hrs before 2.5 g/kg, po glucose load measured after 8 hrs by Oral glucose tolerance test relative to control
[14] = target: Voltage-gated inwardly rectifying potassium channel KCNH2 (Homo sapiens, UniProt Q12809); experiment: Inhibition of human ERG channel
[15] = Elimination half life in rat liver microsomes; format: ADME; conditions: read-out: beta t1/2
[16] = target: Dipeptidyl peptidase 9 (Homo sapiens, UniProt Q86TI2); experiment: Inhibition of human recombinant DPP9 using H-Gly-Pro-AMC substrate after 10 mins by fluorescence assay
[17] = Oral bioavailability in male Sprague-Dawley rat at 10 mg/kg; format: ADME, organism-based; conditions: in vivo
[18] = Cmax in male Sprague-Dawley rat at 5 mg/kg, iv; format: ADME, organism-based; set-up: dose 5 mg/kg, route intravenous; conditions: in vivo
[19] = Metabolic stability in rat liver microsome assessed as turnover after 84 mins; format: ADME; conditions: liver microsomes, read-out: Drug metabolism

Dipeptidyl peptidase 9, sequence (Q86TI2 whole entry): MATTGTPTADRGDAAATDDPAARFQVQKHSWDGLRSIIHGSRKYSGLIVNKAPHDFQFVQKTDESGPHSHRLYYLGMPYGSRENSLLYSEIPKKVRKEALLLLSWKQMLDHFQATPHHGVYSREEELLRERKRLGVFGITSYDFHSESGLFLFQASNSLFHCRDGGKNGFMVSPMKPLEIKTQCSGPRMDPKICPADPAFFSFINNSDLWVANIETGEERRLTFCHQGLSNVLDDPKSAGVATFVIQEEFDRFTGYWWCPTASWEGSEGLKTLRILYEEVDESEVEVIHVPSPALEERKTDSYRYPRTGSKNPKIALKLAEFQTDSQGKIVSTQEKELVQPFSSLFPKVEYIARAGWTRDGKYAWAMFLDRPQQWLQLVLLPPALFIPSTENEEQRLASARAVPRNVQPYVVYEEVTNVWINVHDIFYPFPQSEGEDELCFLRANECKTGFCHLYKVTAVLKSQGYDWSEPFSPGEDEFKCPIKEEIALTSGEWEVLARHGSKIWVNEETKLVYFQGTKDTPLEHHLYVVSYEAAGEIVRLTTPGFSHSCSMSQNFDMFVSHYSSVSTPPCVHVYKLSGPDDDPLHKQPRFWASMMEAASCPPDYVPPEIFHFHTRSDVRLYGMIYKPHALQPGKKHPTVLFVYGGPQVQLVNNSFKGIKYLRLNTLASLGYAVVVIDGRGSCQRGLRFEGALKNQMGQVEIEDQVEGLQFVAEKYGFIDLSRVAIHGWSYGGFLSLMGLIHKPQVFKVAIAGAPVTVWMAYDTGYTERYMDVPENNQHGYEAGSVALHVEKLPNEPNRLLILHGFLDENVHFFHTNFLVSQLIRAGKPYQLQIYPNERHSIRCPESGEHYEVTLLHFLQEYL
Dipeptidyl peptidase 8, sequence (Q6V1X1 whole entry): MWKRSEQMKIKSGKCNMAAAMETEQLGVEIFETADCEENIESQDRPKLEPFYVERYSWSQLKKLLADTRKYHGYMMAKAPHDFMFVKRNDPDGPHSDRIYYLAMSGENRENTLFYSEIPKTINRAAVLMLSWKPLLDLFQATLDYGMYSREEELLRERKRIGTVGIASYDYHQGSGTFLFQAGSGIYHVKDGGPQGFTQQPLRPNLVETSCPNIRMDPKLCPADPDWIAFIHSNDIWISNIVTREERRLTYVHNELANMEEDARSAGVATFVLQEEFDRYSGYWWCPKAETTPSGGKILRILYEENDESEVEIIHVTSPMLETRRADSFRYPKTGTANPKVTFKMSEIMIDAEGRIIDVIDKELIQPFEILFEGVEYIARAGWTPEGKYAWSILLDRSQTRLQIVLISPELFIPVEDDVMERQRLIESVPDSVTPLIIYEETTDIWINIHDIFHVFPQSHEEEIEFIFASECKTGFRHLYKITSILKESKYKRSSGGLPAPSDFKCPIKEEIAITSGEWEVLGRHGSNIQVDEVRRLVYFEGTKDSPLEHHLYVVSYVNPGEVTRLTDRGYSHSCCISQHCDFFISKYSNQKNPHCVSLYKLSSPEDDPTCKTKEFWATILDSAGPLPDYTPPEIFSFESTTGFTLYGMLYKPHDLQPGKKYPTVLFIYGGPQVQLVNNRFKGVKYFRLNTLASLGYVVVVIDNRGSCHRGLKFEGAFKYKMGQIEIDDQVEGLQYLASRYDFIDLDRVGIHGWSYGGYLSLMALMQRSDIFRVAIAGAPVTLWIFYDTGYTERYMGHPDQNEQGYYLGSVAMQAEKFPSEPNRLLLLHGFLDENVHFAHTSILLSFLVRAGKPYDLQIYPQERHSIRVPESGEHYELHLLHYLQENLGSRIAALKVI
Voltage-gated inwardly rectifying potassium channel KCNH2, sequence (Q12809 whole entry): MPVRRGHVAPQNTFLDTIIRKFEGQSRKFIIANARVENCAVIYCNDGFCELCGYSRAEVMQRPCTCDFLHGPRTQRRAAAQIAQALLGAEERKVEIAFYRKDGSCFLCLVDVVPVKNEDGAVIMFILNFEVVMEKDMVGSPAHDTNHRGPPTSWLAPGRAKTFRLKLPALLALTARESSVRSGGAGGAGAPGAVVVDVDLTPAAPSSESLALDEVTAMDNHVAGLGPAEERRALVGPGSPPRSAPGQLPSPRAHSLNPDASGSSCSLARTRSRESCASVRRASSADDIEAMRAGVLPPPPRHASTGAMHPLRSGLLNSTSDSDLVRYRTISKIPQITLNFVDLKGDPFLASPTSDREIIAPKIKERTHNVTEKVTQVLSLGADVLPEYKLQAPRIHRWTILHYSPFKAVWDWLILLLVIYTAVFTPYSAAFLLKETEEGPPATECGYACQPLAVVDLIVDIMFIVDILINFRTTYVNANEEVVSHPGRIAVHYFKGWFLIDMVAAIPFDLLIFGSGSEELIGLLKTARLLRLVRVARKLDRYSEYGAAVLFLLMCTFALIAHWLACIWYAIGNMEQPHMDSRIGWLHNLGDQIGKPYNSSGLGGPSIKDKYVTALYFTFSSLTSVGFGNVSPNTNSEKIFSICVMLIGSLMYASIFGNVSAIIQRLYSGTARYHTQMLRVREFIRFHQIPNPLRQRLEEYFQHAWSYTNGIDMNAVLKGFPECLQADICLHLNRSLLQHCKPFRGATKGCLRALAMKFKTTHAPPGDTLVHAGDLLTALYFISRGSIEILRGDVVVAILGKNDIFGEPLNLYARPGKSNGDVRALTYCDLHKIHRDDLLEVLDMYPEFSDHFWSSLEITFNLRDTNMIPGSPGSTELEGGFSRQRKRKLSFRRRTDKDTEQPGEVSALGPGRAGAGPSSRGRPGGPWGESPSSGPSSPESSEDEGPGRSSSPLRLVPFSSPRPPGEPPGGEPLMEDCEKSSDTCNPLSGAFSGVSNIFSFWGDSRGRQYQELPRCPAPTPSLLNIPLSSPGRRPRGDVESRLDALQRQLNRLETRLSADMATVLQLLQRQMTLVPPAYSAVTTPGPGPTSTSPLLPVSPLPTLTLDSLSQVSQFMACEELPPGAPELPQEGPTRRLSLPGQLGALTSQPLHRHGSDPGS

N[C@@H](CC(=O)N1CCn2c(nnc2C(F)(F)F)C1)[C@H]1CCc2cc(F)c(F)cc21
CL/F [1]: 59.1 mL/min/kg | clearance [2]: 37 mL/min/kg | AUC(0-inf) [3]: 2850 ng·h/mL | inhibition (INH) [4]: 57% | half-life [5]: 4.39 h | Tmax [6]: 0.55 h | IC50 [7]: > 10 µM | AUC(0-inf) [8]: 2270 ng·h/mL | Vd [9]: 14.2 L/kg | Vdss [10]: 25.792 L/kg | half-life [11]: 5.11 h | Cmax [12]: 466 ng/mL | inhibition (INH) [13]: 24% | IC50 [14]: > 20 µM | half-life [15]: 5.88 h | IC50 [16]: > 10 µM | bioavailability [17]: 61% | Cmax [18]: 1490 ng/mL

N[C@@H](CC(=O)N1CC(=O)Nc2ccccc2C1)[C@H]1CCc2cc(F)c(F)cc21
inhibition (INH) [4]: 34% | IC50 [7]: > 10 µM | inhibition (INH) [13]: 35% | IC50 [14]: > 20 µM | half-life [15]: 1.4 h | IC50 [16]: > 10 µM | metabolised at 1.4 h [19]: 50%

N[C@@H](CC(=O)N1CC(=O)Nc2cc(F)ccc2C1)[C@H]1CCc2cc(F)c(F)cc21
half-life [15]: 1.85 h

N[C@@H](CC(=O)N1CC(=O)Nc2cc(F)c(F)cc2C1)[C@H]1CCc2cc(F)c(F)cc21
IC50 [7]: > 10 µM | IC50 [16]: > 10 µM

CN1C(=O)CN(C(=O)C[C@H](N)[C@H]2CCc3cc(F)c(F)cc32)Cc2ccccc21
inhibition (INH) [4]: 29% | IC50 [7]: > 10 µM | inhibition (INH) [13]: 38% | IC50 [16]: > 10 µM

CN1C(=O)CN(C(=O)C[C@H](N)[C@H]2CCc3cc(F)c(F)cc32)Cc2ccc(F)cc21
inhibition (INH) [4]: 48% | IC50 [7]: > 10 µM | inhibition (INH) [13]: 30% | IC50 [16]: > 10 µM

N[C@@H](CC(=O)N1CCn2c(nnc2C(F)(F)F)C1)Cc1cc(F)c(F)cc1F [SITAGLIPTIN]
inhibition (INH) [4]: 40% | inhibition (INH) [13]: 24%

Source: ChEMBL document CHEMBL3580611, “Design, Synthesis, and Pharmacological Evaluation of Fused β-Homophenylalanine Derivatives as Potent DPP-4 Inhibitors” (ACS Med Chem Lett, 2015)
